The values that follow come from PMC9861175, “Diversity and Biosynthetic Potential of Fungi Isolated from St. John’s Island, Singapore” (International Journal of Molecular Sciences, 2023).

Read-outs that look alike come from different tables or passages of the source.

One data set concerns C. albicans ATCC 10231. In words: Antifungal growth inhibition (OD) screen against C. albicans. The data set is classed as cell-based. The conditions noted are these: Candida albicans, read-out: IC50 CA. The procedure:
(§1) Dried extracts were resuspended in MeOH to obtain 20 mg/mL sample concentration followed by sonication for complete solubilizing. Ten microliters (10 µL) of the extracts per well were added to 96-well plates followed by drying via centrifugal vacuum concentrator. Upon drying, 100 µL of 10% DMSO was added to each well to obtain a sample concentration of 2 mg/mL. Ten microliters (10 µL) were subsequently used for the antimicrobial bioassays where 90 µL of the respective microbial cultures were added to each sample, leading to a final extract concentration of 200 µg/mL. For preliminary screening, extracts from all 30 fungi were evaluated for antimicrobial activities using the highest concentration of 200 µg/mL.
For the C. albicans screen, a single colony from freshly streaked C. albicans on Sabouraud dextrose agar (SDA) was inoculated into 25-mL of Sabouraud liquid medium (SLM) and incubated at 35 °C with shaking at 150 rpm for 18 hrs. Subsequently, 1% of the culture (250 µL) was prepared with SLM and incubated at 35 °C with shaking for 6 h. OD600 was monitored until it reached approximately 0.8. Cell density (D) of the culture was calculated using the following equation: D = [(30 × OD600) − 8] × 10^6 CFU/mL. Final cell densities were adjusted to 2.5 × 10^5 CFU/mL and inoculated as 90 µL suspensions into 96-well plates. Similar to the antibacterial assays, upon addition of 10 µL of extracts to the cell suspensions, the plates were incubated at 37 °C for 20 h prior to OD readings. For each extract tested, three technical replicates were used. Amphotericin B was used as the antifungal standard control in C. albicans screen.

In data set [1] the test system is Staphylococcus aureus ATCC 25923. Put plainly: Antibacterial broth microdilution growth inhibition (OD600) against S. aureus. In kind it is cell-based. To be noted: for IC50: read-out: IC50 SA. The procedure:
as §1
(§2) For the antibacterial bioassays, the test microorganisms S. aureus, Methicillin-resistant S. aureus (MRSA) and E. coli were plated on Mueller-Hinton II agar (Merck, Germany) and incubated overnight at 37 °C. Colonies were added to a glass tube containing 0.85% saline solution until the turbidity was equivalent to 0.5 McFarland Standard (approximate cell density 1.5 × 10^8 CFU/mL). Cell suspensions were then diluted in MH2 liquid media to obtain a final cell density of 5 × 10^5 CFU/mL. Ninety microliters (90 µL) of cell suspensions were added to 10 µL of extracts in the 96-well bioassay plates and incubated at 37 °C for 20 h. For each extract tested, three replicates were used. The optical density (OD) of each well was measured using a Hidex Sense microplate reader (Hidex, Finland) at 600 nm. Percentage growth inhibition was calculated according to the following formula with the quality of the bioassay assessed based on the Z-prime analysis. A Z-prime of ≥0.7 indicates the robustness of the high throughput screening data. Gentamicin was used as the standard control against S. aureus and E. coli while vancomycin was used as the standard control in the MRSA assay.
(In broth dilution the organism is exposed to a series of concentrations in liquid medium.)

Data set [2] has as its system Escherichia coli ATCC 25922. In words: Antibacterial broth microdilution growth inhibition (OD600) against E. coli. In kind it is cell-based. To be noted: read-out: IC50 EC. The procedure: as §1, §2
For data set [3] the following is noted: mycotoxins associated with food spoilage; cited from earlier work.
Data set [4] concerns A549 human lung carcinoma cells ATCC CCL-185. In words: Cytotoxicity assay (PrestoBlue, 72 h) on A549 cells. In kind it is cell-based. To be noted: for IC50: Homo sapiens, read-out: IC50 A549. The procedure: The cytotoxic effect of the isolated compounds on the A549 human lung carcinoma cell line was determined as described previously. A549 cells at a concentration of 3.3 × 10^4 cells/mL in Dulbecco’s Modified Eagle Medium (DMEM, Gibco, Life Technologies, Bleiswijk, The Netherlands) were treated with isolated compounds at concentrations ranging from 0.1 μM to 200 μM and incubated for 72 h at 37 °C in 5% CO2 and 95% relative humidity. Cytotoxic effect of the compounds was measured after the addition of PrestoBlue™ cell viability reagent (Thermo Fisher Scientific, USA) and incubation for 2 h by reading of the plates’ fluorescence at an excitation wavelength of 560 nm and emission wavelength of 590 nm using the Tecan Infinite M1000 Pro reader. Puromycin served as the standard control.

Data set [5] concerns Methicillin-resistant Staphylococcus aureus ATCC 33591. Put plainly: Antibacterial broth microdilution growth inhibition (OD600) against MRSA. In kind it is cell-based. The conditions noted are these: 20 h. The procedure: as §1, §2
The test system of a further data set is human hepatoma cell line. The conditions noted are these: cited from earlier work.
For data set [6], the system named is L5178Y mouse lymphoma cell line. Also noted: method as in doi:10.1016/j.phytol.2014.12.010. To be noted: cited from earlier work.
Where [7] appears, read: ATCC10231, isolated compounds, C. albicans ATCC 10231, 20 h.
[8] abbreviates: Staphylococcus aureus, ATCC25923, isolated compounds, S. aureus ATCC 25923, 20 h, 37 °C.
The mark [9] stands for this setting: ATCC25922, isolated compounds, E. coli ATCC 25922, 20 h, 37 °C.
Setting [10] is: Staphylococcus aureus, read-out: IC50 MRSA.
Where [11] appears, read: Staphylococcus aureus, ATCC25923, 20 h, isolated compounds, S. aureus ATCC 25923, 20 h, 37 °C.
Where [12] appears, read: Staphylococcus aureus, read-out: IC50 MRSA, isolated compounds, MRSA ATCC 33591, 37 °C.
Where [13] appears, read: isolated compounds, A549 cells, 72 h.
Setting [14] is: Staphylococcus aureus, isolated compounds, MRSA ATCC 33591, 37 °C, read-out: IC50 MRSA.

For orientation: IC50 means the midpoint of a concentration-inhibition curve. Turning to `C[C@@H]1[C@H](O)[C@@H](C)/C=C/C=C/C=C/C=C/C=C/C=C/C=C/[C@H](O[C@@H]2O[C@H](C)[C@@H](O)[C@H](N)[C@@H]2O)C[C@@H]2O[C@](O)(C[C@@H](O)C[C@@H](O)[C@H](O)CC[C@@H](O)C[C@@H](O)CC(=O)O[C@H]1C)C[C@H](O)[C@H]2C(=O)O` [Amphotericin B, reference compound], in the data set on C. albicans ATCC 10231 (setting [7]), the IC50 turned out to be 0.14 µM.
Take `CNC(C)C1CCC(N)C(OC2C(N)CC(N)C(OC3OCC(C)(O)C(NC)C3O)C2O)O1` (stereo not shown) [Gentamicin, reference compound]: the results for the IC50 in data set [1] (setting [8]) and in data set [2] (setting [9]) were 0.22 µM and 0.67 µM, respectively.
Take `COc1cc2cc3c(c(O)c2c(O)c1-c1c(OC)cc2cc4c(c(O)c2c1O)C(=O)O[C@H](C)C4)C(=O)O[C@H](C)C3` [Vioxanthin]: the “liver and kidney damage in animals” value in data set [3] is “known to cause liver and kidney damage in animals”. For the same molecule, the IC50 in data set [4] (A549, 72 h) is 77.1 µM; in data set [1] (Staphylococcus aureus, ATCC25923, 20 h) it was 3 µM; in data set [5] (setting [10]), 1.6 µM; in data set [2] (ATCC25922, 20 h) it was greater than 200 µM; with C. albicans ATCC 10231 (ATCC10231, 20 h), 36.4 µM.
Turning to `COC1=C(C2=C(OC)C(=O)c3cc4c(c(O)c3C2=O)C(=O)OC(C)C4)C(=O)c2c(cc3c(c2O)C(=O)OC(C)C3)C1=O` (stereo not shown) [Xanthomegnin], the “liver and kidney damage in animals” value in data set [3] is “known to cause liver and kidney damage in animals”. For the same molecule, the IC50 in data set [4] (A549, 72 h) was 65.6 µM; in data set [1] (setting [11]), 19.2 µM; in data set [5] (setting [12]), 35.3 µM; in data set [2] (setting [9]) it was greater than 200 µM; with C. albicans ATCC 10231 (setting [7]) it was 18.6 µM.
With Penilumamide E, the “cytotoxicity activity against a human hepatoma cell line” value (shortened to “cytotoxicity activity”) with human hepatoma cell line is given as “weak cytotoxicity activity”.
Regarding `COc1ccc(C2SSC34CC5(O)C(O)C=CC(O)C5ON3C(=O)C2N(C)C4=O)c(O)c1OC` (stereo not shown) [Pretrichodermamide C], the IC50 in data set [4] (A549, 72 h) is greater than 200 µM; in data set [1] (setting [11]), less than 50 µM; in data set [1] (isolated compounds, S. aureus ATCC 25923, 20 h, 37 °C), 34.7 µM; in data set [5] (setting [12]) it was less than 50 µM; in data set [5] (read-out: IC50 MRSA, isolated compounds, MRSA ATCC 33591, 37 °C) it was 41.6 µM; in data set [2] (setting [9]), greater than 200 µM. Moreover, the IC50 in the data set on C. albicans ATCC 10231 (setting [7]) was greater than 200 µM. The “cytotoxic activity against A549 cells (in words)” value in data set [4] (isolated compounds) is given as “no cytotoxic activity”. The “activity against the L5178Y mouse lymphoma cell line” value in data set [6] is “inactive”.
Take `COc1ccc(C[C@H](N)C(=O)N[C@H]2[C@@H](O)[C@H](n3cnc4c(N(C)C)ncnc43)O[C@@H]2CO)cc1` [Puromycin, reference compound]: in data set [4] (setting [13]), the IC50 turned out to be 0.25 µM.
Regarding `CC(NC(=O)c1cnc2c(n1)c(=O)n(C)c(=O)n2C)C(=O)Nc1ccccc1C(N)=O` (stereo not shown) [Penilumamide D], the IC50 (in data set [4] (setting [13]); in data set [1] (setting [8]); in data set [5] (setting [14]); in data set [2] (setting [9]); with C. albicans ATCC 10231 (setting [7])) was greater than 200 µM throughout. In the data set with human hepatoma cell line, the “cytotoxicity activity” value is recorded as “weak cytotoxicity activity”.
Consider `COC(=O)c1ccccc1NC(=O)C(CC[S+](C)[O-])NC(=O)c1cnc2c(=O)n(C)c(=O)n(C)c2n1` (stereo not shown) [Penilumamide A], for which the IC50 in data set [4] (setting [13]) was 100 µM; in data set [1] (setting [8]), 88 µM; in data set [5] (setting [14]), greater than 200 µM; in data set [2] (setting [9]), greater than 200 µM; in the data set on C. albicans ATCC 10231 (setting [7]) it was greater than 200 µM. In addition, the “cytotoxic activity against A549 cells (in words)” value in data set [4] (isolated compounds) is on record as “weak”. For the same molecule, the “antimicrobial activity against S. aureus (in words)” value in data set [1] (isolated compounds) was “weak”. In addition, the “cytotoxicity activity” value with human hepatoma cell line is reported as “weak cytotoxicity activity”.
On to `COC1=C(c2c(OC)cc3cc4c(c(O)c3c2O)C(=O)OC(C)C4)C(=O)c2c(cc3c(c2O)C(=O)OC(C)C3)C1=O` (stereo not shown) [Viomellein], for which the “liver and kidney damage in animals” value in data set [3] was “known to cause liver and kidney damage in animals”. Besides, the IC50 was 42 µM in data set [4] (A549, 72 h); 3.2 µM in data set [1] (setting [11]); 2.9 µM in data set [5] (setting [12]); greater than 100 µM in data set [2] (setting [9]); 17.9 µM with C. albicans ATCC 10231 (setting [7]).
Regarding `COC(=O)c1ccccc1NC(=O)C(CCSC)NC(=O)c1cnc2c(n1)c(=O)n(C)c(=O)n2C` (stereo not shown) [Penilumamide B], the half-inhibitory concentration (IC50) in data set [4] (setting [13]) was 113 µM; in data set [1] (setting [8]), greater than 200 µM; in data set [5] (setting [14]), greater than 200 µM; in data set [2] (setting [9]), greater than 200 µM; with C. albicans ATCC 10231 (setting [7]), greater than 200 µM.
As to `CN[C@H](CC(C)C)C(=O)N[C@H]1C(=O)N[C@@H](CC(N)=O)C(=O)N[C@H]2C(=O)N[C@H]3C(=O)N[C@H](C(=O)N[C@H](C(=O)O)c4cc(O)cc(O)c4-c4cc3ccc4O)[C@H](O)c3ccc(c(Cl)c3)Oc3cc2cc(c3O[C@@H]2O[C@H](CO)[C@@H](O)[C@H](O)[C@H]2O[C@H]2C[C@](C)(N)[C@H](O)[C@H](C)O2)Oc2ccc(cc2Cl)[C@H]1O` [Vancomycin, reference compound], the IC50 in data set [5] (setting [10]) stood at 1.5 µM.
